Conditions: Liquid; for speed of sound: Pulse-echo method; for mass density: Vibrating tube method

CCCCCCCCCCCCCC(=O)OC [methyl tetradecanoate]
Conditions	mass density [kg/m3]	speed of sound [m/s]
303.15 K, 100 kPa	–	1335.8
303.15 K, 101.3 kPa	859.7	–
303.15 K, 10000 kPa	866.3	1382.9
303.15 K, 20000 kPa	872.4	1426.9
303.15 K, 30000 kPa	878.2	1468.1
303.15 K, 40000 kPa	883.7	1507.6
303.15 K, 50000 kPa	888.9	1544.9
303.15 K, 60000 kPa	893.8	1580.2
303.15 K, 70000 kPa	898.5	1614.2
313.15 K, 101.3 kPa	851.6	–
313.15 K, 10000 kPa	858.2	–
313.15 K, 20000 kPa	864.7	–
313.15 K, 30000 kPa	870.7	–
313.15 K, 40000 kPa	876.4	–
313.15 K, 50000 kPa	881.7	–
313.15 K, 60000 kPa	886.8	–
313.15 K, 70000 kPa	891.7	–
313.15 K, 80000 kPa	896.3	–
323.15 K, 100 kPa	–	1264
323.15 K, 101.3 kPa	843.3	–
323.15 K, 10000 kPa	850.5	1316.4
323.15 K, 20000 kPa	857.2	1364.8
323.15 K, 30000 kPa	863.5	1409.6
323.15 K, 40000 kPa	869.4	1451.9
323.15 K, 50000 kPa	874.9	1492.5
323.15 K, 60000 kPa	880.2	1530.5
323.15 K, 70000 kPa	885.2	1566.8
323.15 K, 80000 kPa	889.9	1601.2
333.15 K, 101.3 kPa	835.2	–
333.15 K, 10000 kPa	843	–
333.15 K, 20000 kPa	850.1	–
333.15 K, 30000 kPa	856.6	–
333.15 K, 40000 kPa	862.7	–
333.15 K, 50000 kPa	868.4	–
333.15 K, 60000 kPa	873.8	–
333.15 K, 70000 kPa	879	–
333.15 K, 80000 kPa	883.9	–
343.15 K, 100 kPa	–	1195.7
343.15 K, 101.3 kPa	827.9	–
343.15 K, 10000 kPa	835.7	1251.2
343.15 K, 20000 kPa	843.1	1302.9
343.15 K, 30000 kPa	849.8	1350.8
343.15 K, 40000 kPa	856.2	1396
343.15 K, 50000 kPa	862.1	1437.4
343.15 K, 60000 kPa	867.7	1477.5
343.15 K, 70000 kPa	873	1515
343.15 K, 80000 kPa	878	1550.8
353.15 K, 101.3 kPa	820.2	–
353.15 K, 10000 kPa	828.5	–
353.15 K, 20000 kPa	836.1	–
353.15 K, 30000 kPa	843.2	–
353.15 K, 40000 kPa	849.8	–
353.15 K, 50000 kPa	855.9	–
353.15 K, 60000 kPa	861.6	–
353.15 K, 70000 kPa	867.1	–
353.15 K, 80000 kPa	872.3	–
363.15 K, 100 kPa	–	1130.9
363.15 K, 101.3 kPa	812.6	–
363.15 K, 10000 kPa	821.2	1190.4
363.15 K, 20000 kPa	829.2	1245.2
363.15 K, 30000 kPa	836.6	1295.9
363.15 K, 40000 kPa	843.4	1342.5
363.15 K, 50000 kPa	849.7	1385.7
363.15 K, 60000 kPa	855.6	1426.7
363.15 K, 70000 kPa	861.2	1465.5
363.15 K, 80000 kPa	866.6	1502.6
373.15 K, 101.3 kPa	804.6	–
373.15 K, 10000 kPa	813.9	–
373.15 K, 20000 kPa	822.2	–
373.15 K, 30000 kPa	829.9	–
373.15 K, 40000 kPa	836.9	–
373.15 K, 50000 kPa	843.5	–
373.15 K, 60000 kPa	849.6	–
373.15 K, 70000 kPa	855.3	–
373.15 K, 80000 kPa	860.8	–
383.15 K, 100 kPa	–	1066.7
383.15 K, 101.3 kPa	796.4	–
383.15 K, 10000 kPa	806.3	1131.3
383.15 K, 20000 kPa	815.1	1189.6
383.15 K, 30000 kPa	823	1242.9
383.15 K, 40000 kPa	830.3	1291.7
383.15 K, 50000 kPa	837.1	1338
383.15 K, 60000 kPa	843.4	1380.3
383.15 K, 70000 kPa	849.3	1420.4
383.15 K, 80000 kPa	854.9	1457.6
393.15 K, 100 kPa	–	1036.2
393.15 K, 101.3 kPa	788.5	–
393.15 K, 10000 kPa	798.6	1103.6
393.15 K, 20000 kPa	807.7	1163.5
393.15 K, 30000 kPa	815.9	1217.8
393.15 K, 40000 kPa	823.5	1267.7
393.15 K, 50000 kPa	830.5	1314.4
393.15 K, 60000 kPa	837	1357.8
393.15 K, 70000 kPa	843.1	1397.8
393.15 K, 80000 kPa	848.8	1436.8

CCCCCCCCCCCCCCCC(=O)OC [methyl hexadecanoate]
Conditions	mass density [kg/m3]	speed of sound [m/s]
313.15 K, 100 kPa	–	1317.2
313.15 K, 101.3 kPa	849.9	–
313.15 K, 10000 kPa	856.3	1365.4
313.15 K, 20000 kPa	861.8	1411.5
313.15 K, 30000 kPa	867.9	1454.4
313.15 K, 40000 kPa	872.1	1494.8
313.15 K, 50000 kPa	878.4	–
323.15 K, 100 kPa	–	1283.4
323.15 K, 101.3 kPa	842.5	–
323.15 K, 10000 kPa	849	1333.7
323.15 K, 20000 kPa	855.5	1381.1
323.15 K, 30000 kPa	861.4	1425.2
323.15 K, 40000 kPa	866.8	1467.4
323.15 K, 50000 kPa	871.8	1506.9
333.15 K, 101.3 kPa	835.2	–
333.15 K, 10000 kPa	842	–
333.15 K, 20000 kPa	848.7	–
333.15 K, 30000 kPa	854.9	–
333.15 K, 40000 kPa	860.4	–
333.15 K, 50000 kPa	866.7	–
343.15 K, 100 kPa	–	1215.3
343.15 K, 101.3 kPa	827.8	–
343.15 K, 10000 kPa	835.1	1270.1
343.15 K, 20000 kPa	842	1319.7
343.15 K, 30000 kPa	848.5	1366.8
343.15 K, 40000 kPa	854.4	1410.5
343.15 K, 50000 kPa	859.6	1450.6
353.15 K, 101.3 kPa	820.4	–
353.15 K, 10000 kPa	827.7	–
353.15 K, 20000 kPa	835.1	–
353.15 K, 30000 kPa	841.7	–
353.15 K, 40000 kPa	847.9	–
353.15 K, 50000 kPa	853.8	–
363.15 K, 100 kPa	–	1150.1
363.15 K, 101.3 kPa	812.8	–
363.15 K, 10000 kPa	820.3	1208.9
363.15 K, 20000 kPa	828	1262.5
363.15 K, 30000 kPa	835	1311.1
363.15 K, 40000 kPa	843.8	1355.7
363.15 K, 50000 kPa	848.6	1400.9
373.15 K, 101.3 kPa	804.6	–
373.15 K, 10000 kPa	813.8	–
373.15 K, 20000 kPa	821.7	–
373.15 K, 30000 kPa	829	–
373.15 K, 40000 kPa	835.7	–
373.15 K, 50000 kPa	841.9	–
383.15 K, 100 kPa	–	1087.2
383.15 K, 101.3 kPa	797.4	–
383.15 K, 10000 kPa	806.8	1150.3
383.15 K, 20000 kPa	815.1	1207.5
383.15 K, 30000 kPa	822.7	1259.3
383.15 K, 40000 kPa	829.6	1310.8
383.15 K, 50000 kPa	836.5	1358.3
393.15 K, 100 kPa	–	1056.9
393.15 K, 10000 kPa	–	1121.2
393.15 K, 20000 kPa	–	1180.4
393.15 K, 30000 kPa	–	1234.2
393.15 K, 40000 kPa	–	1284.7
393.15 K, 50000 kPa	–	1334
